Results: patent US20200239530A1, “COMPOUNDS AND METHODS OF MODULATING PROTEIN DEGRADATION” (Vividion Therapeutics, Inc., priority 2017, published 2020)
Like-named read-outs stand apart in the source and are kept apart here. Values belong to the compound of their own block, whether it stands above or below them.

Key:
Type in all cases: binding
Q8NEG5 = target: T1, Q8NEG5 (Homo sapiens, UniProt Q8NEG5); test: Cysteine liganding, probe competition (Table 2B)
T1 construct: endogenous in cells; whole-cell lysate
T1 sequence (Q8NEG5 1-633): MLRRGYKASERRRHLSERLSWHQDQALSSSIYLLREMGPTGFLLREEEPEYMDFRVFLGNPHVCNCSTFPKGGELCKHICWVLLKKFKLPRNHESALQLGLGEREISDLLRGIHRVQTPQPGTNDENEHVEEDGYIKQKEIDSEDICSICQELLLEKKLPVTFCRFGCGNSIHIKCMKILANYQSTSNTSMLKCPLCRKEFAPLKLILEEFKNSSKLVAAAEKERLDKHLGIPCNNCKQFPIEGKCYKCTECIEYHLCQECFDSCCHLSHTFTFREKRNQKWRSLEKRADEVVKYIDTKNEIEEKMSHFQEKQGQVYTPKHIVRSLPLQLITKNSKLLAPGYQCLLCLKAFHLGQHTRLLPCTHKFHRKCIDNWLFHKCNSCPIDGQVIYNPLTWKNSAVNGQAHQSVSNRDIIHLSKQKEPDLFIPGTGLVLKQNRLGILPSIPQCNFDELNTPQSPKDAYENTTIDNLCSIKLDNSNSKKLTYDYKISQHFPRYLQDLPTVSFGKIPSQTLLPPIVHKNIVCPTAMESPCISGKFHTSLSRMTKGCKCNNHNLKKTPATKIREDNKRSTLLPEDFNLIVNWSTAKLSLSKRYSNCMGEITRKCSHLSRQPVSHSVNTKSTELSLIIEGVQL
Source text: The following 96-well sample prep protocol was used for sample preparation.

[1] = target: ANAPC16 Anaphase-promoting complex subunit 16 (Homo sapiens, UniProt Q96DE5); test: Cysteine liganding, probe competition; design: endogenous in cells
Method: (§1) Cells were resuspended in cold PBS on ice and sonicated with a probe sonicator to achieve lysis. 200 μL of lysate containing 5 mg/ml proteome was treated with 2 μL of 100× compound stock in a 2-mL deep-well plate. The treated lysate was subsequently incubate at 25° C. for 1 hr with shaking at 600 rpm. The treated lysate was further incubated with 2 μL of 10 mM desthiobiotin iodoacetamide probe at 25° C. for 1 hr with shaking at 600 rpm. Next, the lysate was further treat with 20 μL of solution of PBS containing 11 mM MgSO4 and 2.5% Turbonuclease stock and incubated at 25° C. for 20 minutes with shaking at 600 rpm. 1.7 mL ice-cold acetone was added to each well and incubated at −20° C. for 2 hr, followed by max speed (4200 rpm) spin for 45 min. Acetone was then decanted and the plates were blotted to remove acetone. The plates were then dried in open air for 20 minutes. After drying, the plates were then covered with foil seal and stored at −80° C. overnight.
(§2) The next day, samples were re-suspended in 90 μL of solution of 9M urea, 50 mM ammonium bicarbonate and 10 mM DTT by incubating at 65C for 20 min with shaking at 1500 rpm. Next, samples were cooled to 37° C. and then 10 μL of 500 mM iodoacetamide solution (92.48 mg/ml) was added. The samples were then incubated at 37° C. for 30 min with shaking at 600 rpm.
(§3) ZEBA desalting plates were equilibrated 4 times using 250 μL of 2M urea, 50 mM ammonium bicarbonate solution followed by centrifugation at 1500 rpm for 2 minutes. After equilibration was complete, samples were applied to ZEBA desalting plate and spin at 1500 rpm for 2 min on top of 1 mL 96-well deep-well collection plate to buffer exchange samples. 4 μL of solution containing 25 mM CaCl2 and 0.25 mg/mL trypsin was added to the plate and the plate was then incubated at 37° C. for 2 hrs with shaking at 600 rpm. 300 μL of solution containing 5% high-capacity streptavidin agarose slurry in 25 mM Tris-HCl pH 7.5, 150 mM NaCl, and 0.1% NP-40 then added. The plate was incubated at 25° C. for 2 hrs with shaking at 600 rpm. Samples were transferred to 25 μm filter plate and spin at 1000 rpm for 2 min. Samples were then washed 3 times with 0.75 mL of wash buffer (25 mM Tris-HCl pH 7.5, 150 mM NaCl, and 0.1% NP-40) followed by washing 3 times with 0.75 mL PBS, and then 4 times with 0.75 mL water. After the washing step, samples were eluted into polypropylene 96-well plate by addition of 250 µL of 50% MeCN/water, 0.1% formic acid and allowed to gravity drip for 10 min, followed by centrifugation at 1000 rpm for 2 min. Speedvac was used to dry the plates at about 45° C. for […]. Then the plates were covered with foil seal and stored at −20° C.
(§4) Samples were resuspended by addition of 20 μl of 12.5% ACN, 0.1% formic acid solution, covered with foil seal, and incubated at 42° C. for 10 minutes with shaking at 600 rpm. Then add 30 μL of 0.1% formic acid solution was added and the plate was covered and incubated at 42° C. for 10 minutes with shaking at 600 rpm. Seal plate was then sealed with a 96-well silicon mat for analysis.

[2] = target: T2, RNF25 E3 ubiquitin-protein ligase RNF25 (Homo sapiens, UniProt Q96BH1); test: Cysteine liganding, probe competition; design: endogenous in cells
T2 sequence (Q96BH1 1-459): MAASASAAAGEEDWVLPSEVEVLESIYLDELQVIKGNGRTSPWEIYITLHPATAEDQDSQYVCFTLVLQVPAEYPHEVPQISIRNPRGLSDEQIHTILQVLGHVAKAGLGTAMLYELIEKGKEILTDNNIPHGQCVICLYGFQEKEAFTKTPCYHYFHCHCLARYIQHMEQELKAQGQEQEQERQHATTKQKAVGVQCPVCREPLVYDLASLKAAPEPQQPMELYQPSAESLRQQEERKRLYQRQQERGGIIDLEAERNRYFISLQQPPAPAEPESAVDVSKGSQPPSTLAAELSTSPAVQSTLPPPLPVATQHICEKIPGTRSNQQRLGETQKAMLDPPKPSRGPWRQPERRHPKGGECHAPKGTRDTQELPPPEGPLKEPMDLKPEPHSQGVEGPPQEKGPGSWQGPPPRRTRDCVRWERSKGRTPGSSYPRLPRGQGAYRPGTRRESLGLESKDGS
Method: as §1, §2, §3, §4

inhibition at 500 µM (Q8NEG5; read-out: KB05_500 uM_percent_inhibition): 16%
inhibition at 100 µM ([1]; 100 uM, UniProt Q96DE5, read-out: KB05_100 uM_percent_inhibition): 37%
inhibition at 500 µM ([1]; 500 uM, UniProt Q96DE5, read-out: KB05_500 uM_percent_inhibition): 83%
inhibition at 100 µM ([2]; 100 uM, UniProt Q96BH1, read-out: percent_inhibition): 11%
Structure (SMILES): C=CC(=O)N(c1ccccc1)c1ccc(Br)cc1 [KB05]

Structure (SMILES): COc1ccc2c(c1)CCCN2C(=O)CCl [KB02]
inhibition at 500 µM (Q8NEG5; read-out: KB02_500 uM_percent_inhibition): 35%
inhibition at 100 µM ([1]; 100 uM, UniProt Q96DE5, read-out: KB02_100 uM_percent_inhibition): 46%
inhibition at 500 µM ([1]; 500 uM, UniProt Q96DE5, read-out: KB02_500 uM_percent_inhibition): 85%
Liganded ([1]; ANAPC16 Res# 55, uniprot Q96DE5): YES
Liganded ([2]; RNF25 Res# 417, uniprot Q96BH1): YES

Structure (SMILES): O=C(CCl)Nc1cc(C(F)(F)F)cc(C(F)(F)F)c1 [KBO3]
KB03_500 uM_percent_inhibition (Q8NEG5; 500 uM): 8%
KB03_100 uM_percent_inhibition ([1]; 100 uM, UniProt Q96DE5): 52%
KB03_500 uM_percent_inhibition ([1]; 500 uM, UniProt Q96DE5): 82%
500 Max ([1]; uniprot Q96DE5): 36.5
100 Max ([1]; uniprot Q96DE5, unit assumed): 20.4%
100 ave ([2]; uniprot Q96BH1): 14.3
500 Max ([2]; uniprot Q96BH1): 62.0
500 ave ([2]; uniprot Q96BH1): 62.0
100 Max ([2]; uniprot Q96BH1, unit assumed): 14.3%
